Each molecule was assayed against KRas G12D mutant protein (Homo sapiens (Human), UniProt P01116, G12D) (assay: Ras GTP binding domain inhibition assay). Conditions: 20 μM compound.
Experimental: The following method was developed as specific assay for KRas G12D mutant protein.
(§1) Buffer-I: • 50 mM Tris, pH 7.5 • 150 mM NaCl (optional) • 1 mM MgCl2 • 1 mM DTT. • KRas G12D mutant protein was expressed as a His-tagged protein. Purified His-KRas G12D protein was diluted in buffer-I to a final concentration of 3-10 μg/ml. • 200 μl of the diluted His-KRas G12D protein was added to a nickel coated 96 well plate and incubated overnight at 4° C. • The next day, wells were washed 3× in 200 μl of Buffer-I. • Then 200 μl of Buffer-I were added to each well in the presence of 1% DMSO. • Tested compounds were added to the protein-coated wells at a concentration of 20 μM, and incubated for 3 hours at room temperature. While performing IC50 measurements a serial dilution of all tested concentrations was prepared.
(§2) Then 22 μl of Cy3-GTP or Cy5-GTP was added to each well. The labeled GTP was incubated for 45 min. at room temperature. • Following GTP incubation, wells were washed 3× in Buffer-I, and 200 μl of Buffer-I were added to each well. • Following washes, the amount of bound labeled-GTP was measured with an Eppendorf AF2200 plate reader.

KRas G12D mutant protein, sequence (P01116-2 other isoform, or with tags, fused parts or gaps G12D): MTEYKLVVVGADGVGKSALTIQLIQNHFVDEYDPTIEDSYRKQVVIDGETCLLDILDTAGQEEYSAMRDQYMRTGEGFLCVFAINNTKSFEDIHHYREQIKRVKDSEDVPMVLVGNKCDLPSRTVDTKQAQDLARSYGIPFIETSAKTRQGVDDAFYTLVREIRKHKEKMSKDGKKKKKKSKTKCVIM

For `COCCNc1nc(-c2nccn2C)nc2sc(-c3ccccc3)c(-c3ccccc3)c12` [drawing 3594], the “% Inhibition at 20 μM, KRas G12D” value was “B (B = 25-50% inhibition)”.

Same assay, conditions: 20 μM compound; read-out: % Inhibition at 20 μM, KRas G12D

Point of comparison: `COCCOc1nc(-c2ccncn2)nc2sc(-c3ccccc3)c(-c3ccccc3)c12`, inhibition at 20 µM 0%. Against it:
- Cc1ccc(-c2csc3c(O)nc(-c4nccn4C)nc23)c(F)c1 — higher, 25 to 50%
- Cc1cccc(-c2c(C)sc3c(O)nc(-c4nccn4C)nc23)c1 — higher, 1 to 25%
- Nc1nc(-c2ccccn2)nc2c(C3CC3)csc12 — higher, 51 to 75%
- O=C(CCCc1cccnc1)N1CCCc2c(O)nc(C3C=CC=CN3)nc21 (stereo not drawn) — higher, 51 to 75%

Same assay, conditions: at 20 μM; read-out: KRas G12D % Inh.

Compared with `CC(O)ONc1nc(-c2nccn2C)nc2sc(-c3ccccc3)c(-c3ccccc3)c12` (stereo not drawn), `Nc1nc(-c2ccccn2)nc2c(CC3CCNCC3)csc12` is higher in inhibition at 20 µM: 1 to 25% for the first, 51 to 75% for the second.

The molecules below were run on MAPK phosphorylation in PANC-1 pancreatic cancer cell line (assay: MAPK cell-based phosphorylation assay (cell-direct ELISA, EGF-stimulated)). Conditions: Homo sapiens, 30 μM.
Experimental: Cell lines: Tumor-derived pancreatic cancer cell lines PANC-1 were purchased from ATCC and were maintained according to ATCC recommendation.
Method: Cells were plated at 7500 cells/well density in 96-wells plate, starved over night, and the small molecules to be tested were added to the cells in the final concentration of 30 μM with 0.3% DMSO for 6 hours incubation at 37° C. For IC50 value determination, serial dilutions of compounds were added to cells under the same conditions. Next, cells were stimulated with 1.5 ng/ml EGF for 15 min. followed by cell fixation with 4% Formaldehyde in PBS at RT for 20 min. Phosphorylation level of MAPK was determined by Cell-direct ELISA.
Cell-direct ELISA: For each well, cells were permeabilized with PBS-Triton 0.1%, quenched with H2O2 0.6% in PBS-Triton 0.1%, and probed with anti-phospho-MAPK antibodies (R&D Systems) followed by HRP-conjugated secondary antibody (Jackson Immunoresearch, West Grove, Pa.). Next, a solution 50 μM of the fluorescent substrate AmpliFlu Red (Sigma) was added and incubated at RT for 20 min. At the end of the incubation time, fluorescence was measured at 595 nm on a microplate reader (AF2200; Eppendorf, Inc., Hamburg, Germany).

`O=C(CCc1c[nH]c2ccccc12)Nc1nnc(-c2cccnc2)[nH]1` and `O=C(Nc1nnc(-c2ccccc2)[nH]1)c1ncoc1-c1cccs1` fall in the same range of inhibition at 30 µM: 25 to 50% for the first, 25 to 50% for the second.

`O=C(Nc1nnc(-c2ccccc2)[nH]1)C1CCCC1` gave an inhibition at 30 µM of 1 to 25%.

Same assay, conditions: Homo sapiens, * = tested at 10 μM

In the case of `Oc1nc(-c2ccccn2)nc2c(-c3ccccc3)csc12`, the inhibition at 10 µM is reported as 25 to 50%.

These molecules were tested on MIA-PACA2 pancreatic cancer cell lines (assay: Cell proliferation assay (CellTiter 96 AQueous One)). Conditions: Homo sapiens, MIA PaCa-2; 30 μM, MIA-PACA2.
Type: cell-based
Experimental: (§3) Cell lines: Tumor-derived pancreatic cancer cell lines MIA-PACA2 were purchased from ATCC and grown in complete DMEM-High Glucose medium supplemented with penicillin (100 U/mL), streptomycin (100 μg/mL), and 10% heat-inactivated FBS at 37° C. in a humidified incubator with 5% CO2.
Method: Cells are plated at 1000 cells/well density in 96-wells plate, starved ON, and the next day tested small molecules are added to the cells in the final concentration of 30 μM with 0.3% DMSO 3 hours prior to 10% FBS addition. After serum addition cells are incubated for 6 days at 37° C. in a humidified incubator with 5% CO2. For IC50 value determination, serial dilutions of compounds were added to cells under the same conditions.
Assay: At the end of the incubation period, cell cultures are tested using the CellTiter 96® AQueous One Solution Cell Proliferation Assay kit (Promega Corporation, Madison, Wis.) according to the manufacturer specifications. Briefly, assay is performed by adding 20 μl of the CellTiter 96 Aqueous One Solution Reagent directly to culture wells, followed by for 1-4 hours incubation at 37° C. in a humidified incubator with 5% CO2. At the end of incubation time, absorbance at 492 nm is recorded with the 96-well plate reader Eppendorf AF2200, and degree of small molecule-dependent proliferation inhibition is calculated from raw data assuming No Serum cells value as 100%.

First: COc1ccc(CCNC(=O)c2csc3nc(-c4ccccn4)nc(N4CCSCC4)c23)cn1 [drawing 1763]
Second: O=C(NCCc1cnc(O)nc1)c1csc2nc(-c3ccccn3)nc(N3CCSCC3)c12 [drawing 1764]
The inhibition at 30 µM of the first is higher: 51 to 75% for the first, 1 to 25% for the second.

`Nc1nc(-c2ccccn2)nc2c(C(=O)N3CC4CC3CN4c3ccccc3)csc12` (stereo not drawn) and `Nc1nc(-c2ccccn2)nc2c(-c3ccccn3)csc12` fall in the same range of inhibition at 30 µM: 76 to 100% for the first, 76 to 100% for the second.

Same assay, conditions: Homo sapiens, MIA PaCa-2; MIA-PACA2 proliferation; compound tested under both conditions, IC50 assay conditions not specified

`Nc1nc(-c2ccccn2)nc2c(-c3ccccn3)csc12` gave an IC50 greater than 1 µM.

What follows are molecules tested against KRas G12C mutant (Homo sapiens (Human), UniProt P01116, G12C) (assay: Ras GTP binding domain inhibition assay). Conditions: 20 μM compound.
KRas G12C mutant, sequence (P01116-2 other isoform, or with tags, fused parts or gaps G12C): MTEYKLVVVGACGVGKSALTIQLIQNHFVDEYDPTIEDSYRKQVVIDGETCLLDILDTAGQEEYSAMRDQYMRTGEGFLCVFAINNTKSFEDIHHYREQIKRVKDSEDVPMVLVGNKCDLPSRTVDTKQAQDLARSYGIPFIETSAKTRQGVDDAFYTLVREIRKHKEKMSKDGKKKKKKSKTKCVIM
Experimental: as §1, §2
(§4) By substituting KRas G12D mutant protein with KRas G12C mutant, KRas wild type, KRas Q61H mutant, KRas G12D/Q61H double mutant or KRas G12C/Q61H double mutant under the assay conditions described above, KRas G12C mutant KRas wild type, KRas Q61H mutant, KRas G12D/Q61H double mutant and KRas G12C/Q61H double mutant inhibition, respectively, were each determined.

`Cc1ccc(-c2csc3c(O)nc(-c4nccn4C)nc23)c(F)c1` and `Cc1cccc(-c2c(C)sc3c(O)nc(-c4nccn4C)nc23)c1` fall in the same range of inhibition at 20 µM: 1 to 25% for the first, 1 to 25% for the second.

First: Nc1nc(-c2ccccn2)nc2c(C3CC3)csc12
Second: COCCOc1nc(-c2ccncn2)nc2sc(-c3ccccc3)c(-c3ccccc3)c12
The inhibition at 20 µM of the first is higher: 25 to 50% for the first, 1 to 25% for the second.

For `O=C(CCCc1cccnc1)N1CCCc2c(O)nc(C3C=CC=CN3)nc21` (stereo not drawn), the inhibition at 20 µM was 51 to 75%.

`COCCNc1nc(-c2nccn2C)nc2sc(-c3ccccc3)c(-c3ccccc3)c12` [drawing 3594] was tested, and the “% Inhibition at 20 μM, KRas G12C” value was “A (A = 1-25% inhibition)”.

What follows are molecules tested against KRas Q61H mutant (Homo sapiens (Human), UniProt P01116, Q61H) (assay: Ras GTP binding domain inhibition assay). Conditions: 20 μM compound.
KRas Q61H mutant, sequence (P01116-2 other isoform, or with tags, fused parts or gaps Q61H): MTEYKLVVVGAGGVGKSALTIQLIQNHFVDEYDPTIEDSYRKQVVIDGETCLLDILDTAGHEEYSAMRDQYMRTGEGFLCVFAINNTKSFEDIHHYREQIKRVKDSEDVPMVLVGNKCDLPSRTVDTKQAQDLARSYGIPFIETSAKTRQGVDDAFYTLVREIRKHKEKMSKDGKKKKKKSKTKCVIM
Experimental: as §1, §2, §4

`Nc1nc(-c2ccccn2)nc2c(C3CC3)csc12` showed an inhibition at 20 µM of 25 to 50%.

Each molecule was assayed against KRas wild type (Homo sapiens (Human), UniProt P01116) (assay: Ras GTP binding domain inhibition assay). Conditions: 20 μM compound.
KRas wild type, sequence (P01116-2 other isoform, or with tags, fused parts or gaps): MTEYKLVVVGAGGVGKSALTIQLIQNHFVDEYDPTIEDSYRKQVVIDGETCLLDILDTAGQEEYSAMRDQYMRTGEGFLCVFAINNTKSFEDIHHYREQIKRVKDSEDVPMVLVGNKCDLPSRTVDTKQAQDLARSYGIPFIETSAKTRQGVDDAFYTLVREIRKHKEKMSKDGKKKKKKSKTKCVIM
Experimental: as §1, §2, §4

`Cc1ccc(-c2csc3c(O)nc(-c4nccn4C)nc23)c(F)c1` and `Cc1cccc(-c2c(C)sc3c(O)nc(-c4nccn4C)nc23)c1` fall in the same range of inhibition at 20 µM: 1 to 25% for the first, 1 to 25% for the second.

First: Nc1nc(-c2ccccn2)nc2c(C3CC3)csc12
Second: COCCOc1nc(-c2ccncn2)nc2sc(-c3ccccc3)c(-c3ccccc3)c12
The inhibition at 20 µM of the first is higher: 25 to 50% for the first, 1 to 25% for the second.

Molecule `O=C(CCCc1cccnc1)N1CCCc2c(O)nc(C3C=CC=CN3)nc21` (stereo not drawn) has an inhibition at 20 µM of 25 to 50%.

In the case of `COCCNc1nc(-c2nccn2C)nc2sc(-c3ccccc3)c(-c3ccccc3)c12` [drawing 3594], the “% Inhibition at 20 μM, KRas wild type” value is reported as “B (B = 25-50% inhibition)”.

Each molecule was assayed against KRas G12D/Q61H double mutant (Homo sapiens (Human), UniProt P01116, G12D/Q61H) (assay: Ras GTP binding domain inhibition assay). Conditions: 20 μM compound; read-out: % Inhibition at 20 μM, KRas G12D Q61H.
KRas G12D/Q61H double mutant, sequence (P01116-2 other isoform, or with tags, fused parts or gaps G12D/Q61H): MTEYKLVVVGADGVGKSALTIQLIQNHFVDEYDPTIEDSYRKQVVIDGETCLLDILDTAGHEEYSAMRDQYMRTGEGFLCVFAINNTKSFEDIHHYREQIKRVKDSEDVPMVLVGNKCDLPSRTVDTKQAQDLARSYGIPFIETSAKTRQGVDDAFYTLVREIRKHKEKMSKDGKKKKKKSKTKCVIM
Experimental: as §1, §2, §4

First: Nc1nc(-c2ccccn2)nc2c(C3CC3)csc12
Second: O=C(CCCc1cccnc1)N1CCCc2c(O)nc(C3C=CC=CN3)nc21 (stereo not drawn)
The inhibition at 20 µM of the first is lower: 25 to 50% for the first, 51 to 75% for the second.

Same assay, conditions: at 20 μM; read-out: KRas G12D Q61H % Inh.

`Nc1nc(-c2ccccn2)nc2c(CC3CCNCC3)csc12` gave an inhibition at 20 µM of 51 to 75%.

These molecules were tested against KRas G12C/Q61H double mutant (Homo sapiens (Human), UniProt P01116, G12C/Q61H) (assay: Ras GTP binding domain inhibition assay). Conditions: 20 μM compound.
KRas G12C/Q61H double mutant, sequence (P01116-2 other isoform, or with tags, fused parts or gaps G12C/Q61H): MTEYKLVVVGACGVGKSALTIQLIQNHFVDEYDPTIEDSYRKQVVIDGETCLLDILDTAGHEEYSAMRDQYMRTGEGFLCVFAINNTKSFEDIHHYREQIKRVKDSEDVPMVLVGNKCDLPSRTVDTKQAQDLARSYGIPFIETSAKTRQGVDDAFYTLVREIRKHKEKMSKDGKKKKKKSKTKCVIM
Experimental: as §1, §2, §4

With `Nc1nc(-c2ccccn2)nc2c(C3CC3)csc12` the inhibition at 20 µM was 1 to 25%.

These molecules were tested against Rho-A (Homo sapiens (Human), UniProt P61586) (assay: Rac and Rho inhibition assay). Conditions: read-out: Rho-A % Inh.
Rho-A, sequence (P61586 whole entry): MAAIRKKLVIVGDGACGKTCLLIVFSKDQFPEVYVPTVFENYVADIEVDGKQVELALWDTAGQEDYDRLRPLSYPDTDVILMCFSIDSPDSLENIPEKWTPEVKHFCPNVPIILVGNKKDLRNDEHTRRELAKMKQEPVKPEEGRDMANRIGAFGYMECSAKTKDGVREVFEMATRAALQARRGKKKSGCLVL
Type: binding
Experimental: as §1, §2
(§5) By substituting KRas G12D mutant protein with either Rac-1 or Rho-A under the assay conditions described in Example 5, Rac-1 and Rho-A inhibition, respectively, were each determined.

Compared with `CC(O)ONc1nc(-c2nccn2C)nc2sc(-c3ccccc3)c(-c3ccccc3)c12` (stereo not drawn), `Nc1nc(-c2ccccn2)nc2c(CC3CCNCC3)csc12` is higher in inhibition at 20 µM: 25 to 50% for the first, 76 to 100% for the second.

Each molecule was assayed against Rac-1 (Homo sapiens (Human), UniProt P63000) (assay: Rac and Rho inhibition assay). Conditions: read-out: Rac-1 % Inh.
Type: binding
Experimental: as §1, §2, §5

Compared with `CC(O)ONc1nc(-c2nccn2C)nc2sc(-c3ccccc3)c(-c3ccccc3)c12` (stereo not drawn), `Nc1nc(-c2ccccn2)nc2c(CC3CCNCC3)csc12` is higher in inhibition at 20 µM: 25 to 50% for the first, 51 to 75% for the second.

What follows are molecules tested on MIA-PACA2 pancreatic cancer cell lines (assay: Cell proliferation assay, alternate assay conditions (DAPI staining)). Conditions: Homo sapiens, MIA PaCa-2; * = tested at 10 μM, alternate conditions, MIA-PACA2.
Type: cell-based
Experimental: as §3
Method: Cells are plated at 4000 cells/well density in 96-wells plate. The next day tested small molecules are added to the cells in the final concentration of 10 μM in the presence of 0.3% DMSO and 10% FBS. After small molecules addition, cells are incubated for 4 days at 37° C. in a humidified incubator with 5% CO2. For IC50 value determination, serial dilutions of compounds were added to cells under the same conditions.
Assay: At the end of the incubation period, cell cultures are fixed with a 50-50 mixture (v/v) acetone-methanol for 10 minutes at −20° C., followed by rehydration in PBS for 10 minutes at room temperature. After rehydration, cells are stained with DAPI (1 μg/ml) in PBS for 10 minutes at room temperature, followed by 3 washes with PBS. After staining, DAPI fluorescence is recorded (358 nm excitation/461 nm emission) with the 96-well plate reader Molecular Devices Spectramax M3; degree of small mole-cule-dependent proliferation inhibition is calculated from raw data assuming No Serum cells value as 100%.

For `Nc1nc(-c2ccccn2)nc2c(-c3ccccn3)csc12`, the inhibition at 10 µM was 76 to 100%.

Reference: patent US11541041B1, “Compounds that interact with the Ras superfamily for the treatment of cancers, inflammatory diseases, Rasopathies, and fibrotic disease” (Shy Therapeutics LLC, priority 2017, dated 2023)
